# How the values were obtained:
# [1] = system: COLO 205; assay: NCI screen antiproliferative activity, sulforhodamine B, Colon Cancer panel; format: cell-based, human; settings: 48 hours, five 10-fold dilutions starting from 100 μM
# [2] = system: OVCAR-8; settings: 48 hours, five 10-fold dilutions starting from 100 μM
# [3] = system: NCI-H522; assay: cells; settings: Homo sapiens, NCI-H522, 48 h
# [4] = system: SF-268; settings: 48 hours, five 10-fold dilutions starting from 100 μM
# [5] = system: UACC-62; assay: cells; settings: Homo sapiens, UACC-62, 48 h
# [6] = system: NCI-H23; settings: 48 hours, five 10-fold dilutions starting from 100 μM
# [7] = system: SK-MEL-2; assay: cells; settings: Homo sapiens, SK-MEL-2, 48 h
# [8] = system: HCT-15; settings: 48 hours, five 10-fold dilutions starting from 100 μM
# [9] = system: M14; settings: 48 hours, five 10-fold dilutions starting from 100 μM
# [10] = system: OVCAR-5; settings: 48 hours, five 10-fold dilutions starting from 100 μM
# [11] = system: SNB-19; assay: cells; settings: Homo sapiens, SNB-19, 48 h
# [12] = system: NCI-H226; assay: cells; settings: Homo sapiens, NCI-H226, 48 h
# [13] = system: NCI-H522; settings: 48 hours, five 10-fold dilutions starting from 100 μM
# [14] = system: RPMI-8226; assay: NCI screen antiproliferative activity, sulforhodamine B, Leukemia panel; format: cell-based, human; settings: 48 hours, five 10-fold dilutions starting from 100 μM
# [15] = system: RXF 393; assay: cells; settings: Homo sapiens, RXF 393, 48 h
# [16] = system: 786-0; settings: 48 hours, five 10-fold dilutions starting from 100 μM
# [17] = system: UACC-257; settings: 48 hours, five 10-fold dilutions starting from 100 μM
# [18] = system: KM12; assay: NCI screen antiproliferative activity, sulforhodamine B, Colon Cancer panel; format: cell-based, human; settings: 48 hours, five 10-fold dilutions starting from 100 μM
# [19] = system: CAKI-1; assay: cells; settings: Homo sapiens, CAKI-1, 48 h
# [20] = system: SNB-75; assay: cells; settings: Homo sapiens, SNB-75, 48 h
# [21] = system: NCI-H226; settings: 48 hours, five 10-fold dilutions starting from 100 μM
# [22] = system: A549/ATCC; settings: 48 hours, five 10-fold dilutions starting from 100 μM
# [23] = system: HOP-62; assay: cells; settings: Homo sapiens, HOP-62, 48 h
# [24] = system: HCT-116; settings: 48 hours, five 10-fold dilutions starting from 100 μM
# [25] = system: RXF 393; settings: 48 hours, five 10-fold dilutions starting from 100 μM
# [26] = system: HT29; settings: 48 hours, five 10-fold dilutions starting from 100 μM
# [27] = system: NCI-H460; settings: 48 hours, five 10-fold dilutions starting from 100 μM
# [28] = system: SF-539; settings: 48 hours, five 10-fold dilutions starting from 100 μM
# [29] = system: SF-295; assay: cells; settings: Homo sapiens, SF-295, 48 h
# [30] = system: DU-145; assay: cells; settings: Homo sapiens, DU-145, 48 h
# [31] = system: EKVX; assay: cells; settings: Homo sapiens, 48 h
# [32] = system: MDA-MB-231/ATCC; assay: cells; settings: Homo sapiens, MDA-MB-231, 48 h
# [33] = system: SW-620; assay: NCI screen antiproliferative activity, sulforhodamine B, Colon Cancer panel; format: cell-based, human; settings: 48 hours, five 10-fold dilutions starting from 100 μM
# [34] = system: A549/ATCC; assay: cells; settings: Homo sapiens, A549, 48 h
# [35] = system: SK-MEL-2; settings: 48 hours, five 10-fold dilutions starting from 100 μM
# [36] = system: HT29; assay: cells; settings: Homo sapiens, HT-29, 48 h
# [37] = system: SF-268; assay: cells; settings: Homo sapiens, SF-268, 48 h
# [38] = system: MCF7; settings: 48 hours, five 10-fold dilutions starting from 100 μM
# [39] = system: SNB-19; settings: 48 hours, five 10-fold dilutions starting from 100 μM
# [40] = system: HS 578T; assay: NCI screen antiproliferative activity, sulforhodamine B, Breast Cancer panel; format: cell-based, human; settings: 48 hours, five 10-fold dilutions starting from 100 μM
# [41] = system: MDA-MB-435; assay: cells; settings: Homo sapiens, MDA-MB-435, 48 h
# [42] = system: IGROV1; settings: 48 hours, five 10-fold dilutions starting from 100 μM
# [43] = system: UACC-257; assay: cells; settings: Homo sapiens, UACC-257, 48 h
# [44] = system: NCI-H322M; settings: 48 hours, five 10-fold dilutions starting from 100 μM
structure (smiles),measurement,setting,value
CCCCCCCCNCCC[C@@H](C)[C@H]1CC[C@H]2[C@@H]3[C@H](OCCCN)C[C@@H]4C[C@H](OCCCN)CC[C@]4(C)[C@H]3C[C@H](OCCCN)[C@]12C [CSA-13],TGI,[1],3.02 µM
same,GI50,[1]; Homo sapiens,1.27 µM
same,TGI,[2],4.01 µM
same,GI50,[3],2.59 µM
same,CC50,[3]; read-out: LC50,> 100 µM
same,TGI,[4],3.70 µM
same,GI50,[5],0.482 µM
same,CC50,[5]; read-out: LC50,9.43 µM
same,TGI,[6],3.12 µM
same,GI50,[7],4.51 µM
same,CC50,[7]; read-out: LC50,> 100 µM
same,TGI,[8],14.8 µM
same,TGI,[9],3.52 µM
same,TGI,[10],9.44 µM
same,GI50,[11],1.49 µM
same,CC50,[11]; read-out: LC50,89.3 µM
same,GI50,[12],2.22 µM
same,CC50,[12]; read-out: LC50,66.8 µM
same,TGI,[13],10.5 µM
same,TGI,[14],0.911 µM
same,GI50,[14]; Homo sapiens,0.266 µM
same,GI50,[15],1.54 µM
same,CC50,[15]; read-out: LC50,> 100 µM
same,TGI,[16],2.26 µM
same,TGI,[17],9.00 µM
same,TGI,[18],2.76 µM
same,GI50,[18]; Homo sapiens,0.586 µM
same,GI50,[19],2.05 µM
same,CC50,[19]; read-out: LC50,68 µM
same,GI50,[20],1.76 µM
same,CC50,[20]; read-out: LC50,57.2 µM
same,TGI,[21],12.8 µM
same,TGI,[22],9.33 µM
same,GI50,[23],0.806 µM
same,CC50,[23]; read-out: LC50,9.74 µM
same,TGI,[24],2.61 µM
same,TGI,[25],15.6 µM
same,TGI,[26],5.31 µM
same,TGI,[27],3.92 µM
same,TGI,[28],1.41 µM
same,GI50,[29],0.496 µM
same,CC50,[29]; read-out: LC50,24 µM
same,GI50,[30],1.14 µM
same,CC50,[30]; read-out: LC50,4.85 µM
same,GI50,[31],1.32 µM
same,CC50,[31]; read-out: LC50,8.62 µM
same,GI50,[32],0.422 µM
same,CC50,[32]; read-out: LC50,> 100 µM
same,TGI,[33],2.67 µM
same,GI50,[33]; Homo sapiens,1.16 µM
same,GI50,[34],2.01 µM
same,CC50,[34]; read-out: LC50,45.9 µM
same,TGI,[35],>100 µM
same,GI50,[36],1.11 µM
same,CC50,[36]; read-out: LC50,34 µM
same,GI50,[37],1.5 µM
same,CC50,[37]; read-out: LC50,9.14 µM
same,TGI,[38],3.09 µM
same,TGI,[39],5.05 µM
same,TGI,[40],2.35 µM
same,GI50,[40]; Homo sapiens,0.854 µM
same,GI50,[41],0.318 µM
same,CC50,[41]; read-out: LC50,5.68 µM
same,TGI,[42],3.54 µM
same,GI50,[43],2.71 µM
same,CC50,[43]; read-out: LC50,97.9 µM
same,TGI,[44],9.31 µM
